Source: PubChem BioAssay AID220 (DTP/NCI, 2004)
“And” between values parts separate entries of the source, which are not always exact repeats. Equal values may be shown once. Inconclusive results are not listed.

Test system: CD8F1 mice, subcutaneous mammary adenocarcinoma, T/C%
Assay: NCI In Vivo Anticancer Drug Screen. Data for tumor model Mammary Adenocarcinoma CD8F1 (subcutaneous) in CD8F1
Conditions: higher = larger tumour
Outline: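 Tumor-bearing mice, transplantable model; readout survival or tumor size; value = treated (T) / vehicle control (C).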

[1] = endpoint: median tumor weight change, dose: 31.25 mg/kg/injection, schedule: Q01DX001 (ip), vehicle: saline with Tween-80
[2] = endpoint: median tumor weight (est.), dose: 12.5 mg/kg/injection, schedule: Q07DX005 (ip), vehicle: saline with Tween-80
[3] = endpoint: median tumor weight (est.), dose: 25.0 mg/kg/injection, schedule: Q07DX005 (ip), vehicle: saline with Tween-80
[4] = endpoint: median tumor weight (est.), dose: 50.0 mg/kg/injection, schedule: Q07DX005 (ip), vehicle: saline with Tween-80
[5] = endpoint: median tumor weight (est.), dose: 100.0 mg/kg/injection, schedule: Q07DX005 (ip), vehicle: saline with Tween-80
[6] = endpoint: median tumor weight (est.), dose: 200.0 mg/kg/injection, schedule: Q07DX005 (ip), vehicle: saline with Tween-80
[7] = endpoint: median tumor weight (est.), dose: 400.0 mg/kg/injection, schedule: Q07DX005 (ip), vehicle: saline with Tween-80
[8] = endpoint: median tumor weight change, dose: 250.0 mg/kg/injection, schedule: Q01DX001 (ip), vehicle: saline with Tween-80
[9] = endpoint: median tumor weight change, dose: 500.0 mg/kg/injection, schedule: Q01DX001 (ip), vehicle: saline with Tween-80
[10] = endpoint: median tumor weight change, dose: 1000.0 mg/kg/injection, schedule: Q01DX001 (ip), vehicle: saline with Tween-80
[11] = endpoint: median tumor weight change, dose: 62.5 mg/kg/injection, schedule: Q01DX001 (ip), vehicle: saline with Tween-80
[12] = endpoint: median tumor weight change, dose: 125.0 mg/kg/injection, schedule: Q01DX001 (ip), vehicle: saline with Tween-80

In the case of `O=NN(CCCl)C(=O)NCCCl`, the T/C (endpoint: mean tumor weight (est.), dose: 7.5 mg/kg/injection, schedule: Q07DX003 (ip), vehicle: saline + alcohol) is reported as 58 % of control, the T/C (endpoint: mean tumor weight (est.), dose: 12.5 mg/kg/injection, schedule: Q07DX003 (ip), vehicle: saline + alcohol) is reported as 46 % of control and the T/C (endpoint: mean tumor weight (est.), dose: 15.0 mg/kg/injection, schedule: Q07DX003 (ip), vehicle: saline + alcohol) is reported as 34 % of control. For the same compound, the T/C (endpoint: mean tumor weight, dose: 1.5 mg/kg/injection, schedule: Q01DX009 (ip), vehicle: saline) was 52 % of control, the T/C (endpoint: mean tumor weight, dose: 3.0 mg/kg/injection, schedule: Q01DX009 (ip), vehicle: saline) was 54 % of control and the T/C (endpoint: mean tumor weight, dose: 3.75 mg/kg/injection, schedule: Q07DX007 (ip), vehicle: saline + alcohol) was 113 % of control. The T/C (endpoint: mean tumor weight, dose: 6.25 mg/kg/injection, schedule: Q01DX009 (ip), vehicle: saline) was 26 % of control and 29 % of control, the T/C (endpoint: mean tumor weight, dose: 7.5 mg/kg/injection, schedule: Q07DX006 (ip), vehicle: saline + alcohol) was 62 % of control and the T/C (endpoint: mean tumor weight, dose: 7.5 mg/kg/injection, schedule: Q07DX007 (ip), vehicle: saline + alcohol) was 77 % of control. The T/C (endpoint: mean tumor weight, dose: 12.5 mg/kg/injection, schedule: Q07DX006 (ip), vehicle: saline + alcohol) was 33 % of control, the T/C (endpoint: mean tumor weight, dose: 12.5 mg/kg/injection, schedule: Q07DX006 (ip), vehicle: saline) was 5 % of control and the T/C (endpoint: mean tumor weight, dose: 15.0 mg/kg/injection, schedule: Q07DX006 (ip), vehicle: saline + alcohol) was 4 % of control. The T/C (endpoint: mean tumor weight, dose: 15.0 mg/kg/injection, schedule: Q07DX007 (ip), vehicle: saline + alcohol) was 60 % of control, the T/C (endpoint: median tumor weight (est.), dose: 1.5 mg/kg/injection, schedule: Q01DX005 (ip), vehicle: saline with Tween-80) was 49 % of control and the T/C (endpoint: median tumor weight (est.), dose: 2.0 mg/kg/injection, schedule: Q04DX005 (ip), vehicle: saline with Tween-80) was 99 % of control. For the same compound, the T/C (endpoint: median tumor weight (est.), dose: 2.0 mg/kg/injection, schedule: Q07DX005 (ip), vehicle: saline with Tween-80) was 40 % of control and 56 % of control and 65 % of control, the T/C (endpoint: median tumor weight (est.), dose: 3.0 mg/kg/injection, schedule: Q01DX005 (ip), vehicle: saline with Tween-80) was 69 % of control and the T/C (endpoint: median tumor weight (est.), dose: 4.0 mg/kg/injection, schedule: Q04DX005 (ip), vehicle: saline with Tween-80) was 44 % of control. The T/C (endpoint: median tumor weight (est.), dose: 6.0 mg/kg/injection, schedule: Q01DX005 (ip), vehicle: saline with Tween-80) was 29 % of control, the T/C (endpoint: median tumor weight (est.), dose: 8.0 mg/kg/injection, schedule: Q04DX005 (ip), vehicle: saline with Tween-80) was 10 % of control and the T/C (endpoint: median tumor weight (est.), dose: 8.0 mg/kg/injection, schedule: Q07DX005 (ip), vehicle: saline with Tween-80) was 27 % of control and 35 % of control and 38 % of control. The T/C (endpoint: median tumor weight (est.), dose: 12.0 mg/kg/injection, schedule: Q01DX005 (ip), vehicle: saline with Tween-80) was 2 % of control, the T/C (endpoint: median tumor weight (est.), dose: 16.0 mg/kg/injection, schedule: Q04DX005 (ip), vehicle: saline with Tween-80) was 5 % of control and the T/C (endpoint: median tumor weight (est.), dose: 16.0 mg/kg/injection, schedule: Q07DX005 (ip), vehicle: saline with Tween-80) was 1 % of control and 2 % of control and 18 % of control. The T/C (endpoint: median tumor weight change, dose: 7.81 mg/kg/injection, schedule: Q01DX001 (ip), vehicle: saline + alcohol) was 70 % of control, the T/C (endpoint: median tumor weight change, dose: 8.0 mg/kg/injection, schedule: Q01DX001 (ip), vehicle: saline + alcohol) was 32 % of control and the T/C (endpoint: median tumor weight change, dose: 15.62 mg/kg/injection, schedule: Q01DX001 (ip), vehicle: saline + alcohol) was 40 % of control. For the same compound, the T/C (endpoint: median tumor weight change, dose: 15.62 mg/kg/injection, schedule: Q01DX001 (ip), vehicle: saline with Tween-80) was 55 % of control, the T/C (endpoint: median tumor weight change, dose: 16.0 mg/kg/injection, schedule: Q01DX001 (ip), vehicle: saline + alcohol) was 31 % of control and the T/C (endpoint: median tumor weight change, dose: 31.0 mg/kg/injection, schedule: Q01DX001 (ip), vehicle: saline + alcohol) was 23 % of control. The T/C (endpoint: median tumor weight change, dose: 31.25 mg/kg/injection, schedule: Q01DX001 (ip), vehicle: saline + alcohol) was 31 % of control, the T/C [1] was 20 % of control and the T/C (endpoint: median tumor weight change, dose: 62.0 mg/kg/injection, schedule: Q01DX001 (ip), vehicle: saline + alcohol) was -31 % of control. The T/C (endpoint: median tumor weight change, dose: 62.5 mg/kg/injection, schedule: Q01DX001 (ip), vehicle: saline + alcohol) was 17 % of control and the T/C (endpoint: median tumor weight change, dose: 125.0 mg/kg/injection, schedule: Q01DX001 (ip), vehicle: saline + alcohol) was -39 % of control.
With `COC(=O)CC(N)C(=O)O` (centres undefined) the T/C (endpoint: median tumor weight change, dose: 125.0 mg/kg/injection, schedule: Q01DX001 (ip), vehicle: saline) was 60 % of control and the T/C (endpoint: median tumor weight change, dose: 250.0 mg/kg/injection, schedule: Q01DX001 (ip), vehicle: saline) was 61 % of control.
For `NC(Cc1ccc(N(CCCl)CCCl)cc1)C(=O)O` (centres undefined), the T/C (endpoint: median tumor weight (est.), dose: 2.0 mg/kg/injection, schedule: Q07DX005 (ip), vehicle: Klucel (hydroxypropylcellulose) (HPC)) was 39 % of control and the T/C (endpoint: median tumor weight (est.), dose: 4.0 mg/kg/injection, schedule: Q07DX005 (ip), vehicle: Klucel (hydroxypropylcellulose) (HPC)) was 33 % of control.
In the case of `O=C(O)[C@H](Cc1ccccc1)N1C(=O)c2ccccc2C1=O`, the T/C (endpoint: median tumor weight change, dose: 62.5 mg/kg/injection, schedule: Q01DX001 (ip), vehicle: DMSO) is reported as 75 % of control, the T/C (endpoint: median tumor weight change, dose: 125.0 mg/kg/injection, schedule: Q01DX001 (ip), vehicle: DMSO) is reported as 116 % of control and the T/C (endpoint: median tumor weight change, dose: 250.0 mg/kg/injection, schedule: Q01DX001 (ip), vehicle: DMSO) is reported as 68 % of control. For the same compound, the T/C (endpoint: median tumor weight change, dose: 500.0 mg/kg/injection, schedule: Q01DX001 (ip), vehicle: DMSO) was 59 % of control.
For `Cc1ccc(NC(=O)Oc2ccc(Br)cc2Br)c([N+](=O)[O-])c1`, the T/C [2] was 121 % of control, the T/C [3] was 93 % of control and the T/C [4] was 115 % of control. The T/C [5] was 77 % of control, the T/C [6] was 124 % of control and the T/C [7] was 98 % of control. The T/C [8] was 52 % of control, the T/C [9] was 88 % of control and the T/C [10] was 50 % of control. For the same compound, the T/C (endpoint: median tumor weight change, dose: 1800.0 mg/kg/injection, schedule: Q01DX001 (ip), vehicle: saline with Tween-80) was 74 % of control, the T/C (endpoint: median tumor weight change, dose: 2000.0 mg/kg/injection, schedule: Q01DX001 (ip), vehicle: saline with Tween-80) was 59 % of control and the T/C (endpoint: median tumor weight change, dose: 3600.0 mg/kg/injection, schedule: Q01DX001 (ip), vehicle: saline with Tween-80) was 44 % of control.
For `O=S(=O)(O)O`, the T/C (endpoint: median tumor weight change, dose: 62.5 mg/kg/injection, schedule: Q01DX001 (ip), vehicle: Klucel (hydroxypropylcellulose) (HPC)) was 101 % of control.
With `N#CC(=C1C=CC(=NO)C=C1)c1ccc(Cl)cc1` the T/C (endpoint: mean tumor weight, dose: 100.0 mg/kg/injection, schedule: Q07DX006 (ip), vehicle: saline with Tween-80) was 36 % of control and 52 % of control, the T/C (endpoint: mean tumor weight, dose: 200.0 mg/kg/injection, schedule: Q07DX006 (ip), vehicle: saline with Tween-80) was 19 % of control and 26 % of control and the T/C (endpoint: mean tumor weight, dose: 400.0 mg/kg/injection, schedule: Q07DX006 (ip), vehicle: saline with Tween-80) was 7 % of control and 10 % of control. The T/C [3] was 98 % of control, the T/C [4] was 63 % of control and the T/C [5] was 58 % of control. For the same compound, the T/C [6] was 57 % of control, the T/C [7] was 36 % of control and the T/C [11] was 92 % of control. For the same compound, the T/C [12] was 88 % of control, the T/C [8] was 70 % of control and the T/C [9] was 28 % of control. For the same compound, the T/C [10] was 26 % of control.
`NC(=O)c1c[se]c(C2OC(CO)C(O)C2O)n1` (centres undefined) was tested, and the T/C (endpoint: median tumor weight change, dose: 50.0 mg/kg/injection, schedule: Q01DX001 (ip), vehicle: water) was 124 % of control, the T/C (endpoint: median tumor weight change, dose: 75.0 mg/kg/injection, schedule: Q01DX001 (ip), vehicle: water) was 45 % of control and the T/C (endpoint: median tumor weight change, dose: 100.0 mg/kg/injection, schedule: Q01DX001 (ip), vehicle: water) was 83 % of control. The T/C (endpoint: median tumor weight change, dose: 150.0 mg/kg/injection, schedule: Q01DX001 (ip), vehicle: water) was 73 % of control, the T/C (endpoint: median tumor weight change, dose: 200.0 mg/kg/injection, schedule: Q01DX001 (ip), vehicle: water) was 89 % of control and the T/C (endpoint: median tumor weight change, dose: 300.0 mg/kg/injection, schedule: Q01DX001 (ip), vehicle: water) was 47 % of control. For the same compound, the T/C (endpoint: median tumor weight change, dose: 400.0 mg/kg/injection, schedule: Q01DX001 (ip), vehicle: water) was 95 % of control, the T/C (endpoint: median tumor weight change, dose: 600.0 mg/kg/injection, schedule: Q01DX001 (ip), vehicle: water) was 43 % of control and the T/C (endpoint: median tumor weight change, dose: 1200.0 mg/kg/injection, schedule: Q01DX001 (ip), vehicle: water) was 50 % of control.
`Cc1cn(C2CC(O)C(CO)O2)c(=O)[nH]c1=O` (centres undefined) was tested, and the T/C (endpoint: median tumor weight (est.), dose: 25.0 mg/kg/injection, schedule: Q07DX005 (ip), vehicle: saline) was 88 % of control and the T/C (endpoint: median tumor weight (est.), dose: 50.0 mg/kg/injection, schedule: Q07DX005 (ip), vehicle: saline) was 107 % of control.
With `Nc1ccc(S(=O)(=O)c2ccc(N)cc2)cc1` the T/C [1] was 106 % of control, the T/C [11] was 92 % of control and the T/C [12] was 87 % of control. The T/C [8] was 88 % of control and the T/C [9] was 80 % of control.
`O=Cc1ccc([N+](=O)[O-])s1` was tested, and the T/C (endpoint: median tumor weight (est.), dose: 6.25 mg/kg/injection, schedule: Q07DX005 (ip), vehicle: saline with Tween-80) was 225 % of control, the T/C [2] was 71 % of control and the T/C [3] was 295 % of control. The T/C [4] was 156 % of control.
